Among the test systems are EKVX; TK-10; ACHN; NCI-H460; MDA-N; Hs-578T; IGROV-1; U-251; MDA-MB-435; CCRF-CEM; HOP-62; UACC-257; MCF7; OVCAR-8; A498; SF-295; DU-145; RPMI-8226.
What all share (test): NCI-60 cell line screen, 48 h

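In this assay, cells in 96-well plates receive the compound at five concentrations for 48 hours. Endpoints are linearly interpolated between the surrounding concentrations. At the GI50, growth is halved.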 Active and inactive are the calls of the source. Rule as the data show it: active = GI50 up to about 1.1 µM and inactive = higher.

For `O=C1/C(=C\c2cccc(Oc3ccccc3)c2)SC(c2ccccc2)N1c1cc(Cl)ccc1Cl` (centres undefined), the GI50 with EKVX is 38.1 µM (inactive); with TK-10 it was 47 µM (inactive); in the assay on ACHN it was 43.7 µM (inactive); with NCI-H460 it was 45.4 µM (inactive); with MDA-N it was 18.4 µM (inactive); with Hs-578T, 24.4 µM (inactive). In addition, the GI50 in the assay on IGROV-1 is 26.3 µM (inactive); in the assay with U-251, 33.4 µM (inactive); in the assay with MDA-MB-435, 32.3 µM (inactive); in the assay with CCRF-CEM it was 0.0356 µM (active); in the assay on HOP-62, 56.5 µM (inactive); in the assay on UACC-257, 32.7 µM (inactive). Also, the GI50 with MCF7 was 25.9 µM (inactive); in the assay with OVCAR-8 it was 21.3 µM (inactive); in the assay with A498 it was > 100 µM (inactive); in the assay with SF-295, 24.2 µM (inactive); in the assay with DU-145 it was 36 µM (inactive); in the assay with RPMI-8226, 37 µM (inactive).
On to `N#C/C(=C1/c2cc([N+](=O)[O-])ccc2-c2c1cc([N+](=O)[O-])cc2[N+](=O)[O-])N1CCCCC1`, for which the GI50 with EKVX was > 100 µM (inactive); with TK-10 it was > 100 µM (inactive); in the assay with ACHN it was > 100 µM (inactive); with MDA-N, > 100 µM (inactive); with Hs-578T, 43.7 µM (inactive); with IGROV-1 it was 49.5 µM (inactive). Besides, the GI50 is 71.8 µM (inactive) in the assay with U-251; > 100 µM (inactive) in the assay on MDA-MB-435; > 100 µM (inactive) in the assay on CCRF-CEM; 32.4 µM (inactive) in the assay on HOP-62; > 100 µM (inactive) in the assay with UACC-257; 19 µM (inactive) in the assay on MCF7. Moreover, the GI50 in the assay on OVCAR-8 was > 100 µM (inactive); in the assay with A498 it was > 100 µM (inactive); in the assay with SF-295 it was > 100 µM (inactive); with DU-145, 38.5 µM (inactive); in the assay on RPMI-8226, 17 µM (inactive).
For the molecule `COc1ccc(N2C(=O)C(Cl)C2c2cc3cc(Br)ccc3nc2Cl)cc1` (centres undefined), the GI50 was 4.67 µM (inactive) in the assay on EKVX; 7.52 µM (inactive) in the assay with TK-10; 4.89 µM (inactive) in the assay on ACHN; 5.33 µM (inactive) with NCI-H460; 5.31 µM (inactive) with MDA-N; 11.5 µM (inactive) with Hs-578T. Moreover, the GI50 with IGROV-1 is 5.12 µM (inactive); in the assay with MDA-MB-435 it was 4.71 µM (inactive); in the assay on CCRF-CEM, 1.86 µM (inactive); in the assay with HOP-62, 6.44 µM (inactive); in the assay with UACC-257, 5.2 µM (inactive); with MCF7, 4.82 µM (inactive). Besides, the GI50 in the assay with OVCAR-8 was 13.4 µM (inactive); with A498, 16.6 µM (inactive); in the assay on SF-295 it was 11.9 µM (inactive); in the assay with DU-145, 7.46 µM (inactive); in the assay on RPMI-8226, 6.59 µM (inactive).
As to `N#CC[C@@H](O)COc1ccccc1`, the GI50 in the assay on EKVX, with TK-10, with ACHN, with NCI-H460, with MDA-N and in the assay on Hs-578T was > 100 µM (inactive) in each case. For the same molecule, the GI50 with U-251, with MDA-MB-435, in the assay on CCRF-CEM, in the assay on HOP-62, with UACC-257 and in the assay on MCF7 was > 100 µM (inactive) each time. Besides, the GI50 with OVCAR-8, with A498, in the assay on SF-295, with DU-145 and in the assay with RPMI-8226 was > 100 µM (inactive) in each case.

For the origin of these results see ChEMBL document CHEMBL1201862, “PubChem BioAssay data set” (2004).
